Measurements: ChEMBL document CHEMBL1201862, “PubChem BioAssay data set” (2004)
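How tested: cells in 96-well plates exposed to compound for 48 hours at five concentrations. GI50 is the concentration that inhibits growth by half.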 Calls of active or inactive are those of the source. No stated cut-off is given here; in the data, active = GI50 up to about 1.1 µM and inactive = higher.

Legend:
Experiment in all cases: NCI anticancer screen, dose series, 48 h
CCRF-CEM = tested on: CCRF-CEM
HCT-116 = tested on: HCT-116
HCT-15 = tested on: HCT-15
HOP-62 = tested on: HOP-62
K562 = tested on: K562
MDA-MB-231 = tested on: MDA-MB-231
MDA-N = tested on: MDA-N
Malme-3M = tested on: Malme-3M
OVCAR-5 = tested on: OVCAR-5
PC-3 = tested on: PC-3
RPMI-8226 = tested on: RPMI-8226
SF-268 = tested on: SF-268
SK-MEL-28 = tested on: SK-MEL-28
SK-MEL-2 = tested on: SK-MEL-2
SN12C = tested on: SN12C
SR = tested on: SR
SW-620 = tested on: SW-620
T47D = tested on: T47D
NCI-H23 = tested on: NCI-H23
Hs-578T = tested on: Hs-578T

Row | SMILES | GI50 (CCRF-CEM) | GI50 (HCT-116) | GI50 (HCT-15) [µM] | GI50 (HOP-62) | GI50 (K562) | GI50 (MDA-MB-231) | GI50 (MDA-N) | GI50 (Malme-3M) | GI50 (OVCAR-5) | GI50 (PC-3) | GI50 (RPMI-8226) | GI50 (SF-268) | GI50 (SK-MEL-28) | GI50 (SK-MEL-2) | GI50 (SN12C) | GI50 (SR) | GI50 (SW-620) | GI50 (T47D) | GI50 (NCI-H23) | GI50 (Hs-578T)
1 | CC1(C)CC(O)CC(C)(C)N1O [TEMPOL HYDROXYLAMINE] | > 100 µM (inactive) | > 100 µM (inactive) | > 100 | > 100 µM (inactive) | > 100 µM (inactive) | > 100 µM (inactive) | > 100 µM (inactive) | > 100 µM (inactive) | > 100 µM (inactive) | > 100 µM (inactive) | > 100 µM (inactive) | > 100 µM (inactive) | > 100 µM (inactive) | > 100 µM (inactive) | > 100 µM (inactive) | > 100 µM (inactive) | > 100 µM (inactive) | > 100 µM (inactive) |  | 
2 | COc1cc(-c2nc3cc(F)ccc3s2)ccc1O | 28.8 µM (inactive) | 62.7 µM (inactive) | 11.7 |  | 82.8 µM (inactive) | 34.2 µM (inactive) | 99.3 µM (inactive) | 78.9 µM (inactive) | > 100 µM (inactive) | 49 µM (inactive) | 41.1 µM (inactive) | 41.4 µM (inactive) | 33.8 µM (inactive) | > 100 µM (inactive) | 85.1 µM (inactive) | 29.7 µM (inactive) | > 100 µM (inactive) | 0.286 µM (active) | 42.2 µM (inactive) | 
3 | Cc1cn2c(/C=N/NC(=N)N)c(-c3ccc(Cl)c([N+](=O)[O-])c3)nc2s1 | 0.267 µM (active) | 0.207 µM (active) | 1.7 | 1.54 µM (inactive) | 0.257 µM (active) | 1.13 µM (inactive) | 0.857 µM (active) | 1.83 µM (inactive) | 1.17 µM (inactive) | 1.58 µM (inactive) | 0.904 µM (active) | 1.23 µM (inactive) | 1.71 µM (inactive) | 0.647 µM (active) | 0.705 µM (active) |  | 0.244 µM (active) |  | 1.43 µM (inactive) | 0.973 µM (active)
4 | O=C(OCC(Cl)(Cl)Cl)O[C@@H]1CCCC1(c1ccccc1)c1ccccc1 | > 100 µM (inactive) | 44.8 µM (inactive) | 77.4 | > 100 µM (inactive) | 30.8 µM (inactive) | > 100 µM (inactive) | 72.4 µM (inactive) |  | > 100 µM (inactive) | 37.5 µM (inactive) |  | > 100 µM (inactive) | 78.7 µM (inactive) |  | > 100 µM (inactive) | 12.6 µM (inactive) | > 100 µM (inactive) | 72.1 µM (inactive) | 68.1 µM (inactive) | 
5 | O=C1CCC2(c3ccc(Cl)cc3)Nc3ncncc3N12 (configuration not stated) | > 10 µM (inactive) |  | > 10 |  | > 10 µM (inactive) | 0.001 µM (active) | > 10 µM (inactive) | > 10 µM (inactive) | > 10 µM (inactive) | > 10 µM (inactive) |  | > 10 µM (inactive) |  | > 10 µM (inactive) | > 10 µM (inactive) |  | > 10 µM (inactive) |  | > 10 µM (inactive) | > 10 µM (inactive)
6 | Oc1ccc(-c2c3c(nc4c2CCc2ccc(Br)cc2-4)-c2cc(Br)ccc2CC3)cc1 |  | 24.4 µM (inactive) | 18.9 | 17.2 µM (inactive) |  | 17.7 µM (inactive) | 18.6 µM (inactive) | 25.8 µM (inactive) | 18 µM (inactive) | 17.9 µM (inactive) | 26.9 µM (inactive) | 21.7 µM (inactive) | 20.6 µM (inactive) | 16.8 µM (inactive) | 20 µM (inactive) |  |  | 21.2 µM (inactive) | 20.3 µM (inactive) | 
7 | O=C1/C(=C/c2ccc(Cl)cc2)NC(=S)N1CN1CCOCC1 | 74 µM (inactive) | > 100 µM (inactive) | > 100 | > 100 µM (inactive) | > 100 µM (inactive) | > 100 µM (inactive) | > 100 µM (inactive) | > 100 µM (inactive) | > 100 µM (inactive) | > 100 µM (inactive) | > 100 µM (inactive) | > 100 µM (inactive) | > 100 µM (inactive) | > 100 µM (inactive) | > 100 µM (inactive) |  | > 100 µM (inactive) |  | > 100 µM (inactive) | > 100 µM (inactive)
